{
  "source": "patent US8092841B2",
  "key": {"ERβ [1]": {"biological_target": "T1, ERβ (Homo sapiens, UniProt Q92731)", "T1 sequence (Q92731 whole entry)": "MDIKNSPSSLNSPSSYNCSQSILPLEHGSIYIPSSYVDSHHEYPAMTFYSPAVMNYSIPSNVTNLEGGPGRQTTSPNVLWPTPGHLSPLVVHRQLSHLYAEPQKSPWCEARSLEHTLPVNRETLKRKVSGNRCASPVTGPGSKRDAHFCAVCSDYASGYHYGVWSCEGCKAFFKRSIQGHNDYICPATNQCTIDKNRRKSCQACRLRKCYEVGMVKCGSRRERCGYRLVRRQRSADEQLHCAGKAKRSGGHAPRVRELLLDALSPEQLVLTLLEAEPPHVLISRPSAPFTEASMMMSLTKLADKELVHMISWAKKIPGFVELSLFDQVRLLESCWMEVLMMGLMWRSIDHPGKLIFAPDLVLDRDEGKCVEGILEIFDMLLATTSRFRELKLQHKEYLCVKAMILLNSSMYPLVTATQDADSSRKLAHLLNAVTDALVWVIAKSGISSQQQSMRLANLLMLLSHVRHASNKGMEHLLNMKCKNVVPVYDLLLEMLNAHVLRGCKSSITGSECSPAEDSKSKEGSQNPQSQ", "experiment": "TNF-RE tkLuc repression, U2OS cells with ERβ", "type": "cell-based", "design": "expressed in transfected cells; host or cells: U2OS (human osteosarcoma)"}, "ERβ [2]": {"biological_target": "T1, ERβ", "details": "in the presence of ERβ", "source_text": "(§1) Plasmid Construction. […] ERβ mutants were created with QuikChange site-directed mutagenesis kits (Stratagene), by using oligonucleotides containing the mutation. The mutants were sequenced with Sequenase kits (Amersham Pharmacia) to verify the presence of the mutation."}, "TNF-RE tkLuc": {"system": "TNF-RE tkLuc", "experiment": "Activation of TNF-RE tkLuc reporter (Example 2)", "type": "cell-based", "details": "for activation of TNF-RE tkLuc by antiestrogens: in contrast to E2", "source_text": "as §1"}, "breast cancer [3]": {"system": "breast cancer", "details": "among the 5129 women in the raloxifene treatment group, median follow-up of 40 months; cited from earlier work"}, "breast cancer [4]": {"system": "breast cancer", "details": "five years of tamoxifen therapy; cited from earlier work"}, "breast cancer [5]": {"system": "breast cancer", "details": "women at high risk for breast cancer; cited from earlier work"}},
  "data": [
    {"molecule": "C[C@]12CC[C@@H]3c4ccc(O)cc4CC[C@H]3[C@@H]1CC[C@@H]2O", "note": "[E2, estradiol]", "values": [
      {"measurement": "repression of TNF-α activation of TNF-RE", "setting": "ERβ [1]", "value": 100, "unit": "%"},
      {"measurement": "repression of TNF-α activation of TNF-RE tkLuc", "setting": "ERβ [2]", "value": "60-80%"}
    ]},
    {"molecule": "C[C@]12CC[C@@H]3c4ccc(O)cc4C[C@@H](CCCCCCCCC[S+]([O-])CCCC(F)(F)C(F)(F)F)[C@H]3[C@@H]1CC[C@@H]2O", "note": "(stereo partly shown) [ICI 182, 780]", "values": [
      {"measurement": "activation of TNF-RE tkLuc by antiestrogens", "setting": "TNF-RE tkLuc", "value": 2, "unit": "fold"}
    ]},
    {"molecule": "O=C(c1ccc(OCCN2CCCCC2)cc1)c1c(-c2ccc(O)cc2)sc2cc(O)ccc12", "note": "[raloxifene]", "values": [
      {"measurement": "cases of breast cancer", "setting": "breast cancer [3]", "value": 13, "unit": "cases"},
      {"measurement": "activation of TNF-RE tkLuc by antiestrogens", "setting": "TNF-RE tkLuc", "value": 2, "unit": "fold"}
    ]},
    {"molecule": "CC/C(=C(\\c1ccccc1)c1ccc(OCCN(C)C)cc1)c1ccccc1", "note": "[tamoxifen]", "values": [
      {"measurement": "reduction of mortality from breast cancer", "setting": "breast cancer [4]", "value": 22, "unit": "%"},
      {"measurement": "reduction of the risk of recurrences", "setting": "breast cancer [4]", "value": 42, "unit": "%"},
      {"measurement": "reduction of the risk of primary invasive breast cancer", "setting": "breast cancer [5]", "value": 49, "unit": "%"},
      {"measurement": "activation of TNF-RE tkLuc by antiestrogens", "setting": "TNF-RE tkLuc", "value": 2, "unit": "fold"}
    ]},
    {"molecule": "TNF-α", "values": [
      {"measurement": "activation of 3 copies of the TNF-RE (−125 to −82) upstream of the tk promoter", "setting": "TNF-RE tkLuc; TNF-RE tkLuc", "value": "5-10 fold"}
    ]}
  ]
}
